The record followed here is patent US9254293B2, “Methods and compositions for inhibiting or reducing hair loss, acne, rosacea, prostate cancer, and BPH” (The Trustees of the University of Pennsylvania, priority 2006, dated 2016).

In the test the test system is wild-type c57/black mice. As to the kind of experiment: Topical application of PGD2 to the shaved central back of mice, effect on hair growth. The format is in vivo. The protocol: 25 day-old (corresponding to end of the first telogen stage) wild-type c57/black mice were treated with 200 ng of PGD2 (Cayman Chemicals) diluted in 200 μl of acetone applied to the central back after shaving. Subsequent treatments were performed every 3 days, ending on day 40 For a total of […]. Photographs were taken on day 46 of life, after the end of the 2nd anagen. In the second experiment, mice were shaved and treated with 10 μg of PGD2 dissolved in 200 μl of acetone on days 66 and 69 of life, and then photographed on day #121.

Entries after “also recorded” stand apart in the source; their conditions may differ.

For the molecule `CCCCC[C@H](O)/C=C/[C@H]1C(=O)C[C@H](O)[C@@H]1C/C=C\CCCC(=O)O` [PGD2, prostaglandin D2], the “effect of PGD2 on hair growth (alopecia)” value (25 day-old mice, 200 ng PGD2 in 200 μl acetone on central back after shaving, every 3 days to day 40 (5 applications), photographed day 46 after end of 2nd anagen) is reported as “baldness (alopecia); also recorded: induced alopecia”. For the setting “mice shaved, 10 μg PGD2 in 200 μl acetone on days 66 and 69 of life, photographed day 121, over 50 days after the last application”, the “effect of PGD2 on hair regrowth” value is recorded as “prevent hair regrowth”.
